According to ChEMBL document CHEMBL1156435, “Evidence for the involvement of carbon-centered radicals in the induction of apoptotic cell death by artemisinin compounds” (J Biol Chem, 2007):
The source made the active and inactive calls. No cut-off for these calls is given here.

Key:
Jurkat = experiment: Cytotoxicity against human Jurkat cells after 72 hrs by MTT assay; assay type: functional, cell-based
PBMC [1] = experiment: Cytotoxicity against human PBMC after 72 hrs by MTT assay; assay type: cell-based
HL-60 [2] = experiment: Cytotoxicity against human HL60 cells assessed as LDH release after 72 hrs; assay type: functional, cell-based; conditions: HL-60, 72 h
HL-60 [3] = experiment: Induction of apoptosis in human HL60 cells assessed as increase in sub-G0/G1 population at 1 uM after 24 hrs by flow cytometry; assay type: functional
HL-60 [4] = experiment: Induction of apoptosis in human HL60 cells assessed as pyknotic nuclear fragments at 10 uM after 24 hrs; assay type: functional, cell-based
HL-60 [5] = experiment: Induction of apoptosis in human HL60 cells assessed as pyknotic nuclear fragments at 10 uM after 24 hrs in presence of Z-VAD-fmk; assay type: functional, cell-based
HL-60 [6] = experiment: Reversal of induction of apoptosis in human HL60 cells assessed as inhibition of caspase 3 activation at 1 uM after 24 hrs by Western blotting in presence of Z-VAD-fmk; assay type: functional, cell-based
HL-60 [7] = experiment: Induction of apoptosis in human HL60 cells assessed as mitochondrial membrane depolarization at 10 uM after 24 hrs by flow cytometry in presence of Z-VAD-fmk; assay type: functional, cell-based
HL-60 [8] = experiment: Reversal of induction of apoptosis in human HL60 cells assessed as formation of sub-G0/G1 population at 10 uM after 24 hrs by flow cytometry in presence of Z-VAD-fmk; assay type: functional, cell-based
HL-60 [9] = experiment: Cytotoxicity against human HL60 cells after 72 hrs by MTT assay; assay type: functional, cell-based; conditions: HL-60, 72 h
[10] = Stability in human HL60 cells assessed as percentage drug remaining at 10 uM after 16 hrs; assay type: ADME, cell-based; conditions: HL-60 cells, read-out: Activity
[11] = Stability in human HL60 cells assessed as percentage drug remaining at 10 uM after 24 hrs; assay type: ADME, cell-based; conditions: HL-60 cells, read-out: Activity
HL-60 [12] = experiment: Stability in human HL60 cells assessed as formation of 10-beta-(p-bromophenoxy)-dihydroartemisinin tetrahydrofuran acetate at 10 uM after 24 hrs; assay type: ADME, cell-based; conditions: hl-60, 24 h
[13] = Stability in human PBMC assessed as percentage drug remaining at 10 uM after 24 hrs; assay type: ADME, cell-based; conditions: read-out: Activity
HL-60 [14] = experiment: Cytotoxicity against human HL60 cells after 6 hrs by MTT assay; assay type: functional, cell-based; conditions: HL-60, 6 h
HL-60 [15] = experiment: Cytotoxicity against human HL60 cells after 16 hrs by MTT assay; assay type: functional, cell-based; conditions: HL-60, 16 h
HL-60 [16] = experiment: Cytotoxicity against human HL60 cells after 24 hrs by MTT assay; assay type: functional, cell-based; conditions: HL-60, 24 h
HL-60 [17] = experiment: Induction of apoptosis in human HL60 cells assessed as activation of caspase 3 by Western blotting; assay type: functional, cell-based
HL-60 [18] = experiment: Induction of apoptosis in human HL60 cells assessed as activation of caspase 7 by Western blotting; assay type: functional, cell-based
HL-60 [19] = experiment: Induction of apoptosis in human HL60 cells assessed as mitochondrial membrane depolarization at 1.0 uM after 12 hrs by flow cytometry; assay type: functional
HL-60 [20] = experiment: Induction of apoptosis in human HL60 cells assessed as mitochondrial membrane depolarization at 1.0 uM after 24 hrs by flow cytometry; assay type: functional
PBMC [21] = experiment: Induction of apoptosis in human PBMC assessed as mitochondrial membrane depolarization at 0.1 to 100 uM after 24 hrs; assay type: functional, cell-based
HL-60 [22] = experiment: Induction of apoptosis in human HL60 cells assessed as increase in sub-G0/G1 population at 1 uM after 16 hrs by flow cytometry; assay type: functional

COc1cccc2c1C(=O)c1c(O)c3c(c(O)c1C2=O)C[C@@](O)(C(=O)CO)C[C@@H]3O[C@H]1C[C@H](N)[C@H](O)[C@H](C)O1 [DOXORUBICIN]
IC50 (Jurkat): 90 nM

C[C@H]1[C@@H](O)O[C@@H]2O[C@@]3(C)CC[C@H]4[C@H](C)CC[C@@H]1[C@@]24OO3 [ARTENIMOL]
IC50 (Jurkat): 650 nM | IC50 (PBMC [1]): > 250000 nM | IC50 (HL-60 [2]): 1560 nM | Activity (HL-60 [3]): 60% | Activity (HL-60 [4]): Active | Activity (HL-60 [5]): inactive | Activity (HL-60 [6]): Active | Activity (HL-60 [7]): Active | Activity (HL-60 [8]): Active

C[C@H]1[C@@H](Oc2ccc(Br)cc2)O[C@@H]2O[C@]3(C)CC[C@H]4[C@H](C)CC[C@@H]1[C@@]24OO3
IC50 (HL-60 [9]): 120 nM | IC50 (Jurkat): 340 nM | IC50 (PBMC [1]): > 250000 nM | IC50 (HL-60 [2]): 730 nM | remaining at 16 h, 10 µM [10]: 37% | remaining at 24 h, 10 µM [11]: 19% | Activity (HL-60 [12]): 7% | remaining at 24 h, 10 µM [13]: 64% | Activity (HL-60 [3]): 60%

C[C@H]1[C@@H](Oc2ccc(F)cc2)O[C@@H]2O[C@]3(C)CC[C@H]4[C@H](C)CC[C@@H]1[C@@]24O3
IC50 (HL-60 [9]): 25500 nM | IC50 (Jurkat): 30700 nM | IC50 (PBMC [1]): > 250000 nM | IC50 (HL-60 [2]): 32400 nM | IC50 (HL-60 [14]): > 100000 nM | IC50 (HL-60 [15]): 3780 nM | IC50 (HL-60 [16]): 460 nM | Activity (HL-60 [17]): inactive | Activity (HL-60 [18]): inactive

C[C@H]1[C@@H](Oc2ccc(F)cc2)O[C@@H]2O[C@]3(C)CC[C@H]4[C@H](C)CC[C@@H]1[C@@]24OO3
IC50 (HL-60 [9]): 540 nM | IC50 (Jurkat): 230 nM | IC50 (PBMC [1]): > 250000 nM | IC50 (HL-60 [2]): 760 nM | IC50 (HL-60 [14]): > 100000 nM | IC50 (HL-60 [15]): 6080 nM | IC50 (HL-60 [16]): 510 nM | Activity (HL-60 [19]): 65.8% | Activity (HL-60 [20]): 29.8% | Activity (PBMC [21]): inactive | Activity (HL-60 [22]): 24.3% | Activity (HL-60 [3]): 62.9% | Activity (HL-60 [4]): Active | Activity (HL-60 [5]): inactive
